Assay results as given in ChEMBL document CHEMBL2163299, “Cytotoxic effects of combination of oxidosqualene cyclase inhibitors with atorvastatin in human cancer cells” (J Med Chem, 2012).
Activity calls are given as the source filed them. No cut-off for these calls is given here.

Assays:
[1] = Chemical stability of compound at pH 4.0 after 24 hrs; assay type: physicochemical; conditions: buffer, pH 4, 24 h
[2] = Chemical stability of compound at pH 7.4 after 24 hrs; assay type: physicochemical; conditions: buffer, pH 7.4, 24 h
Lanosterol synthase = molecular target: T1, Lanosterol synthase (Homo sapiens, UniProt P48449); experiment: Inhibition of human liver microsome 2,3-OSC after 1 hr by Silica gel plate phosphor imaging
T1 sequence (P48449 whole entry): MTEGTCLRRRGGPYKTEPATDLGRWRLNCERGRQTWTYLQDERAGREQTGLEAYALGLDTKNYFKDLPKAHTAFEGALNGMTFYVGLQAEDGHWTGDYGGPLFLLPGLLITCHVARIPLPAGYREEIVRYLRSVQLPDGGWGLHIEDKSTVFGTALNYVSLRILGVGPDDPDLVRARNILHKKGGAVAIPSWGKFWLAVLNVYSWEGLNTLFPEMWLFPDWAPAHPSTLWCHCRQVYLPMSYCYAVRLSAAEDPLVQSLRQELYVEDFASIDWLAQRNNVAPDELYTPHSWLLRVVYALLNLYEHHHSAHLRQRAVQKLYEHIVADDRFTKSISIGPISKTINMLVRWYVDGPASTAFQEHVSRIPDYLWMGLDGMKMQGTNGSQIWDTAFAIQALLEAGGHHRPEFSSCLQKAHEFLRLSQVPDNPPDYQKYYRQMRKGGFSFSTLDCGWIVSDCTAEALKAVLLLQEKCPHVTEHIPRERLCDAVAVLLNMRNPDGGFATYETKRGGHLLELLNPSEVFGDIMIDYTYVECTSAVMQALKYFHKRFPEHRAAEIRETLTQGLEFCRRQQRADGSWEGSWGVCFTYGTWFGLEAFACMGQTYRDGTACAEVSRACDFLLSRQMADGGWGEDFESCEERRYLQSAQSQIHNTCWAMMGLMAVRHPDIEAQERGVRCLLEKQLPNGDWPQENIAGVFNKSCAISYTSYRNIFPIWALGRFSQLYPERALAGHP

A549 = experiment: Cytotoxicity against human A549 cells after 72 hrs by MTT assay; assay type: functional, cell-based; conditions: A549, 72 h
KB = experiment: Cytotoxicity against human KB cells after 72 hrs by MTT assay; assay type: functional, cell-based
LNCaP = experiment: Cytotoxicity against human LNCAP cells after 72 hrs by MTT assay; assay type: functional, cell-based
[3] = Cytotoxicity against human LNZ308 cells after 72 hrs by MTT assay; assay type: functional, cell-based; conditions: LNZ308, 72 h
[4] = Cytotoxicity against human Me300 cells after 72 hrs by MTT assay; assay type: functional, cell-based; conditions: Me300, 72 h
OVCAR = experiment: Cytotoxicity against human OVCAR cells after 72 hrs by MTT assay; assay type: functional, cell-based
LN-18 [5] = experiment: Inhibition of DNA synthesis in human LN18 cells assessed as inhibition of tritiated thymidine incorporation at 1 to 3 uM after 24 hrs by beta counting; assay type: functional, cell-based
LN-229 [6] = experiment: Inhibition of DNA synthesis in human LN229 cells assessed as inhibition of tritiated thymidine incorporation at 1 to 3 uM after 24 hrs by beta counting; assay type: functional, cell-based
[7] = (§1) Cytotoxicity against human LN18 cells assessed as reduction in cell survival after 72 hrs by MTT assay; assay type: functional, cell-based; conditions: LN-18, 72 h
LN-18 [8] = experiment: as §1; assay type: functional, cell-based
[9] = (§2) Cytotoxicity against human LN229 cells assessed as reduction in cell survival after 72 hrs by MTT assay; assay type: functional, cell-based; conditions: LN-229, 72 h
LN-229 [10] = experiment: as §2; assay type: functional, cell-based
LN-229 [11] = experiment: Cytotoxicity against human LN229 cells at 4 to 10 uM after 72 hrs by MTT assay; assay type: functional, cell-based
LN-18 [12] = experiment: Cytotoxicity against human LN18 cells at 2 to 10 uM after 72 hrs by MTT assay in presence of atorvastatin; assay type: functional, cell-based
[13] = Cytotoxicity against human HCEC cells at 2 to 10 uM after 72 hrs in by MTT assay in presence of atorvastatin; assay type: cell-based
[14] = Cytotoxicity against human LN229 cells assessed as decrease in cell survival at 2 uM after 72 hrs by MTT assay in presence of 2.5 uM atorvastatin; assay type: functional, LN-229
LN-229 [15] = experiment: Induction of [14C]acetate incorporation in human LN229 cells at 2 uM after 24 hrs by Beta-counting in presence of 2.5 to 10 uM atorvastatin; assay type: functional, cell-based
LN-18 [16] = experiment: Induction of [14C]acetate incorporation in human LN18 cells at 2 uM after 24 hrs by Beta-counting in presence of 2.5 to 10 uM atorvastatin; assay type: functional, cell-based
LN-229 [17] = experiment: Induction of [14C]acetate incorporation in human LN229 cells at 2 uM after 24 hrs by Beta-counting; assay type: functional, cell-based
LN-18 [18] = experiment: Induction of [14C]acetate incorporation in human LN18 cells at 2 uM after 24 hrs by Beta-counting; assay type: functional, cell-based
LN-229 [19] = experiment: Cytotoxicity against human LN229 cells at 4 to 10 uM after 72 hrs by MTT assay in presence of atorvastatin; assay type: functional, cell-based
[20] = pampa, pH 6.5
Description: Permeability of compound at pH 6.5 assessed as compound binding to lipid membrane by PAMPA

Caco-2 = experiment: cells; conditions: Homo sapiens, Caco-2, 72 h
Description: Cytotoxicity against human Caco2 cells after 72 hrs by MTT assay

HeLa = experiment: cells; conditions: Homo sapiens, 72 h
Description: Cytotoxicity against human HeLa cells after 72 hrs by MTT assay

MCF7 = experiment: cells; conditions: Homo sapiens, MCF7, 72 h
Description: Cytotoxicity against human MCF7 cells after 72 hrs by MTT assay

cells = conditions: Homo sapiens, HCEC, 72 h
Description: Cytotoxicity against human HCEC cells assessed as reduction in cell survival after 72 hrs by MTT assay

physchem = conditions: 1-octanol/TAPSO buffer, pH 7.4
Description: 1-Octanol-TAPSO buffer distribution coefficient, log D of the compound at pH 7.4 by shake-flask method

in vitro = conditions: pampa, pH 6.5
Description: Apparent permeability of compound at pH 6.5 by PAMPA

LN-229 [21] = experiment: Cytotoxicity against human LN229 cells at 4 uM after 72 hrs by MTT assay in presence of atorvastatin; assay type: functional, cell-based
LN-18 [22] = experiment: Cytotoxicity against human LN18 cells after 72 hrs by MTT assay in presence of atorvastatin; assay type: functional, cell-based

| SMILES | Stability [1] | Stability [2] | IC50 (Lanosterol synthase) [µM] | IC50 (A549) [µM] | IC50 (KB) [µM] | IC50 (LNCaP) [µM] | IC50 [3] [µM] | IC50 [4] [µM] | IC50 (OVCAR) [µM] | inhibition (LN-18 [5]) | inhibition (LN-229 [6]) | IC50 [7] [µM] | IC50 [9] [µM] | permeability [20] [%] | IC50 (Caco-2) [µM] | IC50 (HeLa) [µM] | IC50 (MCF7) [µM] | IC50 (cells) [µM] | logD (physchem) | Papp (in vitro) [×10⁻⁶ cm/s] | also measured |
| --- | --- | --- | --- | --- | --- | --- | --- | --- | --- | --- | --- | --- | --- | --- | --- | --- | --- | --- | --- | --- | --- |
| CCN(CCO)CCCCOc1ccc2c(-c3ccc(Br)cc3)nsc2c1.Cl | Stable | Stable | 0.0178 | 5.14 | 4.66 | > 30 | 4.7 | 6.2 | 16.7 | Active | Active | 2 | 2.9 | 37 | 1.04 | 6.37 | 5.58 | 2.2 | 3.39 | 0.22 | Activity (LN-18 [8]): Dose-dependent effect; Activity (LN-229 [10]): Dose-dependent effect; Activity (LN-229 [11]): Active; Activity (LN-18 [12]): Active; Activity [13]: Non-toxic; Activity [14]: 80%; Activity (LN-229 [15]): Active; Activity (LN-18 [16]): Active; Activity (LN-229 [17]): Active; Activity (LN-18 [18]): Active; Activity (LN-229 [19]): Active |
| C=CCN(C)CCCCCCOc1ccc2c(-c3ccc(Br)cc3)nsc2c1.O=C(O)/C=C/C(=O)O | Stable | Stable |  | 6.06 | 8.52 | 19.5 | 4.4 | 13.4 | > 30 | Active | Active | 7.6 | 5.2 | 40 | 1.97 | 8.85 | 8.3 | 4.8 | 3.43 | 0.57 | Activity (LN-18 [8]): Dose-dependent effect; Activity (LN-18 [12]): Active; Activity (LN-229 [21]): Active |
| CN(CC[C@H]1CC[C@H](C(=O)N2CCC(O)CC2)CC1)C(=O)Oc1ccc(Cl)cc1 | Stable | Stable | 0.0287 | > 30 | 7.58 | 5.55 | > 30 | 25 | > 30 | Active | Active | > 30 | > 30 | 2 | > 30 | 21.8 | > 30 | > 30 | 2.93 | 5.05 |  |
| C=CCN(C)Cc1ccc(-c2ccc(C(=O)c3ccc(Br)cc3)cc2)cc1.Cl | Stable | Stable | 0.008 | 6.19 | 2.03 | 5.07 | 14.4 | 13.9 | > 30 | Active | Active | 2.3 | 17.9 | 58 | 3.81 | 2.69 | 25.7 | > 30 | 3.13 | 0.64 | Activity (LN-18 [8]): Dose-dependent effect; Activity (LN-229 [10]): Dose-dependent effect; Activity (LN-18 [22]): Active |
| CCN(CCO)CCCC#C[C@H]1CC[C@H](N(C)C(=O)Oc2ccc(Cl)cc2)CC1.Cl | Stable | Stable | 0.01 | 13.6 | 5.86 | 23.6 | 15.3 | 26.2 | > 30 | Active | Active | 13.4 | 21.1 | 10 | 4.81 | 8.64 | > 30 | 29.1 | 2.51 | 2.87 |  |
